Among the data in ChEMBL document CHEMBL5291721, “A preclinical secondary pharmacology resource illuminates target-adverse drug reaction associations of marketed drugs” (Nat Commun, 2023) are AC50 values, retold here.

Molecules are shown by their SMILES.

In assay [1] the target is Vasopressin V1a receptor (Homo sapiens, UniProt P37288).
Assay [2] deals with T1, 5-hydroxytryptamine receptor 2C (Homo sapiens, UniProt P28335).
T1 sequence (P28335 whole entry): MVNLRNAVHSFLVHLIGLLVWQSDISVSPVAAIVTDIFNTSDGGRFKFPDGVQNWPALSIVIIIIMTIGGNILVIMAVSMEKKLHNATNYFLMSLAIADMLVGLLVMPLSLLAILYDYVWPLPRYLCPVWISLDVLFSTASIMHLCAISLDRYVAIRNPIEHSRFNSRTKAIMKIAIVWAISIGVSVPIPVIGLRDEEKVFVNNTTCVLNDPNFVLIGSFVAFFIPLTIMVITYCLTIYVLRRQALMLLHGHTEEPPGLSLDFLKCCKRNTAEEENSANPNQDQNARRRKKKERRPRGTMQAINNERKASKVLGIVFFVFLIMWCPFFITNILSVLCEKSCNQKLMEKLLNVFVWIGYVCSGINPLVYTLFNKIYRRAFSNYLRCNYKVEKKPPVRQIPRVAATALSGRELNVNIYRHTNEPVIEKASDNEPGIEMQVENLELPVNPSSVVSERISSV

Assay [3] has as its target Gamma-aminobutyric acid receptor subunit alpha-1 (Rattus norvegicus, UniProt P62813). Format: functional.
Assay [4] concerns the target Delta-type opioid receptor (Homo sapiens, UniProt P41143).
The target of assay [5] is Histamine H2 receptor (Homo sapiens, UniProt P25021). Format: functional, cell-based.
Histamine H2 receptor, sequence (P25021 whole entry): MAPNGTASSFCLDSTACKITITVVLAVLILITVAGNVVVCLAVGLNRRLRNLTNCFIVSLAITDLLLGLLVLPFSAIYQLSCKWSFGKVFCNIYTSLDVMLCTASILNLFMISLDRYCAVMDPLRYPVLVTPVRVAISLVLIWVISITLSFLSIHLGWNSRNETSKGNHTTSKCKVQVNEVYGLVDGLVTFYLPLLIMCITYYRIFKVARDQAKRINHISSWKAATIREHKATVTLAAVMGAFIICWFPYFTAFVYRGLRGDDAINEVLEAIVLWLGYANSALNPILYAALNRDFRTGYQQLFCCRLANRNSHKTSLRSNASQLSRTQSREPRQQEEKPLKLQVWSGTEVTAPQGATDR
Assay [6] deals with Neuronal acetylcholine receptor subunit alpha-4 (Homo sapiens, UniProt P43681).
Neuronal acetylcholine receptor subunit alpha-4, sequence (P43681 whole entry): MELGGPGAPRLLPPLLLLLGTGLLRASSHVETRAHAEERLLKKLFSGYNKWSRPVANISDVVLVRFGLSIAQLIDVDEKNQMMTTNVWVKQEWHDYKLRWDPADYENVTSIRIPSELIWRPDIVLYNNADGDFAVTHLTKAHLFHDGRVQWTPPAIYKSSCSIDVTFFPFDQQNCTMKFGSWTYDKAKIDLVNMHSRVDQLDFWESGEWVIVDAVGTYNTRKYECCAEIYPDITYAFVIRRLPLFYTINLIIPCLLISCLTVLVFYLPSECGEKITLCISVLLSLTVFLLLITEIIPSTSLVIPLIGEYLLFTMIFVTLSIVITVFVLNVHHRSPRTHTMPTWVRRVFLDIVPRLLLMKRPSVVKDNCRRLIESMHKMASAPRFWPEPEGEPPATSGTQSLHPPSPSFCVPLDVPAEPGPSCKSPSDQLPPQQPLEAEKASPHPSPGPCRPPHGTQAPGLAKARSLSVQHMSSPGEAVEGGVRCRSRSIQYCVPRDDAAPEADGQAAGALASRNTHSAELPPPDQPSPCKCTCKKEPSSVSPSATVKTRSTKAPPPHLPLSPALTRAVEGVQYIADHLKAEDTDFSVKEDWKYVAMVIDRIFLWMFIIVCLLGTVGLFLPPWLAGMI
Assay [7] addresses T2, Alpha-2C adrenergic receptor (Homo sapiens, UniProt P18825).
T2 sequence (P18825 whole entry): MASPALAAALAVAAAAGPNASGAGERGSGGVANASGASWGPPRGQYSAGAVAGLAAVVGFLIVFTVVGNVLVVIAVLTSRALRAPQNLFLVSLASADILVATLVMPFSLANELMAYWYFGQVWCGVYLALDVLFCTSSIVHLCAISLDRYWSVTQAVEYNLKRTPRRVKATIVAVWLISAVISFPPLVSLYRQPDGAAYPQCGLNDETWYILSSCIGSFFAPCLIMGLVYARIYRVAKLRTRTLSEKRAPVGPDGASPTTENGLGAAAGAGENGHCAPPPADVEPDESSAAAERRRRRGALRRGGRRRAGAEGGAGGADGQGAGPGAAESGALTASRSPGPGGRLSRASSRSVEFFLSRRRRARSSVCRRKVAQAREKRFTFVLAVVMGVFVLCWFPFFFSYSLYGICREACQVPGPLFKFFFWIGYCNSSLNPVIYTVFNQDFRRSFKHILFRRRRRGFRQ
Format: functional.

The target of assay [8] is T3, Adenosine receptor A1 (Homo sapiens, UniProt P30542).
T3 sequence (P30542 whole entry): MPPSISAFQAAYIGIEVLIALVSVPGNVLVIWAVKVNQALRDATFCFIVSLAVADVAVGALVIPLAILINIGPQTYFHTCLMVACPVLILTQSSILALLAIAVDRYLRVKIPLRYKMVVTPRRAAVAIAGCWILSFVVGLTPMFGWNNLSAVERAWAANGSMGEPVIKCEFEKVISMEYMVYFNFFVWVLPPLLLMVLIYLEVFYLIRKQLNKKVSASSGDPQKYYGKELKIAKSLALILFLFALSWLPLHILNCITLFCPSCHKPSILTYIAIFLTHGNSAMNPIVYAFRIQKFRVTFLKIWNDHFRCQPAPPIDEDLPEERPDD

Assay [9] addresses Mu-type opioid receptor (Homo sapiens, UniProt P35372).
Assay [10] concerns the target Cannabinoid receptor 1 (Homo sapiens, UniProt P21554).
The target in assay [11] is T4, Alpha-1A adrenergic receptor (Homo sapiens, UniProt P35348).
T4 sequence (P35348 whole entry): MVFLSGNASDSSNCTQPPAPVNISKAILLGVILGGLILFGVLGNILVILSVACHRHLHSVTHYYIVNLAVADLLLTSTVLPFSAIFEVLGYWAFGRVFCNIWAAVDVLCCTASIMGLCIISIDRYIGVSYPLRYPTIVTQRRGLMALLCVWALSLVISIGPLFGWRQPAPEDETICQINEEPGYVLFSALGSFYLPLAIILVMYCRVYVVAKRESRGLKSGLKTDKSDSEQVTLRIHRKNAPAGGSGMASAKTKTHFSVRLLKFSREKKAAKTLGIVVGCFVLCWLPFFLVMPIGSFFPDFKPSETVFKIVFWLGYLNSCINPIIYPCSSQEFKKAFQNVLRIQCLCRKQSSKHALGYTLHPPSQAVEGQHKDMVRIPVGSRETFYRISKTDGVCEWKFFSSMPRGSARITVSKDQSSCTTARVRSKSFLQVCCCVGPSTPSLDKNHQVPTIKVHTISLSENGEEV
The format is functional, cell-based.

Assay [12] addresses Melanocortin receptor 4 (Homo sapiens, UniProt P32245).
Also: assay procedure not described here.

Gamma-aminobutyric acid receptor subunit alpha-1, sequence (P62813 whole entry): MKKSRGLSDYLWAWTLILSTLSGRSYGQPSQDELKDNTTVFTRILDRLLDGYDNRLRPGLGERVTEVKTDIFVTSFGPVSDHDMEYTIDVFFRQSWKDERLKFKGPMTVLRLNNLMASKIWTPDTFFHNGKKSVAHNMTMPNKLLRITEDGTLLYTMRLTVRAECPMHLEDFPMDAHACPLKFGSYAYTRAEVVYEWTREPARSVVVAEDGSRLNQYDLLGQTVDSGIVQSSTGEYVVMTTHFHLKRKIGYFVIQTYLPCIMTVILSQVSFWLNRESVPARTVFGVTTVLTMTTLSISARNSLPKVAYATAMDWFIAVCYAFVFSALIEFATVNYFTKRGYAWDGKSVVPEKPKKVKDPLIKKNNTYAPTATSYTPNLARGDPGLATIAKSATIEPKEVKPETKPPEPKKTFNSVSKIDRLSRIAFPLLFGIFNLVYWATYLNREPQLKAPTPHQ
Melanocortin receptor 4, sequence (P32245 whole entry): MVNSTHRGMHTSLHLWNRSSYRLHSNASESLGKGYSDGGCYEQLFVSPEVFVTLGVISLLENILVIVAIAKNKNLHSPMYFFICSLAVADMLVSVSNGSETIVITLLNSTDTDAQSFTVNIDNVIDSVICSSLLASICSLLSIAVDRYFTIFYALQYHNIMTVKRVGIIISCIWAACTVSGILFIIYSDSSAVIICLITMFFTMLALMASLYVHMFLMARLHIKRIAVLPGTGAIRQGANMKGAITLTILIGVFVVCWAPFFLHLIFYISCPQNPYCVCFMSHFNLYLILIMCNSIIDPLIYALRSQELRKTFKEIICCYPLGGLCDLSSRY
Mu-type opioid receptor, sequence (P35372 whole entry): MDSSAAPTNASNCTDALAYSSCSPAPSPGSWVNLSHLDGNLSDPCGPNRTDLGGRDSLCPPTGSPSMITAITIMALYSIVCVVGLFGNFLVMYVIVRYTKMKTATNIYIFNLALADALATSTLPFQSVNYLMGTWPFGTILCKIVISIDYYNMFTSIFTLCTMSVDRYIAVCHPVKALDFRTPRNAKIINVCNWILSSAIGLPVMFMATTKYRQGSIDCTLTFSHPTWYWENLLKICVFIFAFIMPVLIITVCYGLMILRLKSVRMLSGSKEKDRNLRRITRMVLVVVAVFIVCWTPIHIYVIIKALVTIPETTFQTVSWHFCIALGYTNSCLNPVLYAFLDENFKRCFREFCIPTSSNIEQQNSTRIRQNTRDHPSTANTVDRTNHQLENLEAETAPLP
Vasopressin V1a receptor, sequence (P37288 whole entry): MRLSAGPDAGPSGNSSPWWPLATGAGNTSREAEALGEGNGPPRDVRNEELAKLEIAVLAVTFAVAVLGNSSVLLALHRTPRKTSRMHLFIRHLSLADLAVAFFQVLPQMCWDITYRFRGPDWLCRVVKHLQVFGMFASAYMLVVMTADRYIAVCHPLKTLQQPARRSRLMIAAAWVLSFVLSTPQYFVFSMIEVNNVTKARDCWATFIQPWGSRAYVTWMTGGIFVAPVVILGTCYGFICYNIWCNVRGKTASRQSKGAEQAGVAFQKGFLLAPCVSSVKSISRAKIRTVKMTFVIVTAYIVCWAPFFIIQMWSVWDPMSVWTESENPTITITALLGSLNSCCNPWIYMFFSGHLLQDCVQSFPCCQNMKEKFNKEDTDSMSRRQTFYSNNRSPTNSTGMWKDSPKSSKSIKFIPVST
Delta-type opioid receptor, sequence (P41143 whole entry): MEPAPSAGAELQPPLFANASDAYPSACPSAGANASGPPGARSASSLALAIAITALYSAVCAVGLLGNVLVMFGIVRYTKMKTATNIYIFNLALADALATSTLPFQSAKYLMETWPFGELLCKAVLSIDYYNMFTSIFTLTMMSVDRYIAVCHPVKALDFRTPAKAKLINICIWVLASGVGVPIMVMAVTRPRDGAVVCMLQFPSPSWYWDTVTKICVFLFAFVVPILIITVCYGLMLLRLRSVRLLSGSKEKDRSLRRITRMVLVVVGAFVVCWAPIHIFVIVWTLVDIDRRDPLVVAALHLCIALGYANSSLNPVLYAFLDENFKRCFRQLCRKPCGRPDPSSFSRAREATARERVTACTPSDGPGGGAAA
Cannabinoid receptor 1, sequence (P21554 whole entry): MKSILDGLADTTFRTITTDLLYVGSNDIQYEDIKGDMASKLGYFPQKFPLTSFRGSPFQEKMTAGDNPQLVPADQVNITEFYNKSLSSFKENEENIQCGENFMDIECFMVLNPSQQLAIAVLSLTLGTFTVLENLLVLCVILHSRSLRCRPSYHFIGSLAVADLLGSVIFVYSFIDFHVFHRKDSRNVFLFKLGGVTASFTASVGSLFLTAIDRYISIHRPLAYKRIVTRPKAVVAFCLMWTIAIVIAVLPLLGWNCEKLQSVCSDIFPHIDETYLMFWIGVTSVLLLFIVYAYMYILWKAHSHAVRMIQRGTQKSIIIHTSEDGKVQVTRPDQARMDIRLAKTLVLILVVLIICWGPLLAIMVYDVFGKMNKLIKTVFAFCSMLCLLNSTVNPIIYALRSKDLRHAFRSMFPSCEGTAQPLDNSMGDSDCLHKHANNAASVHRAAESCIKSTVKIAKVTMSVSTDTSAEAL

One may read the AC50 as the midpoint of the concentration-response curve, whichever way the signal moves. A high value points to weaker potency. In the case of `CC(=O)OCC(=O)[C@@]1(O)CC[C@H]2[C@@H]3CCC4=CC(=O)CC[C@]4(C)C3=CC[C@@]21C` [ANECORTAVE ACETATE], the AC50 in assay [1] is > 10 µM; in assay [2], > 30 µM; in [3], > 10 µM; in assay [4], > 30 µM; in [5], > 10 µM; in assay [6] it was > 10 µM. Moreover, the AC50 in assay [7] was > 10 µM; in assay [8], > 10 µM; in assay [9], > 30 µM; in [10], > 10 µM; in [11], > 30 µM; in assay [12], > 10 µM.

Consider `CCN(CC)C(=O)C1CN2CCc3cc(OC)c(OC)cc3C2CC1OC(C)=O` (configuration not stated) [BENZQUINAMIDE], for which the AC50 is > 30 µM in assay [1]; 17 µM in assay [2]; > 30 µM in [3]; > 30 µM in assay [4]; > 30 µM in assay [5]; > 30 µM in assay [6]. The AC50 in assay [7] is 1.7 µM; in assay [8], > 30 µM; in assay [9], > 30 µM; in [10], > 10 µM; in assay [11], > 30 µM; in [12], > 10 µM.

Regarding `CCCC(C)(COC(N)=O)COC(=O)NC(C)C` (configuration not stated) [CARISOPRODOL], the AC50 was > 10 µM in [1]; > 30 µM in [2]; > 10 µM in assay [3]; > 30 µM in assay [4]; > 10 µM in [5]; > 10 µM in assay [6]. For the same molecule, the AC50 in assay [7] was > 10 µM; in assay [8], > 30 µM; in assay [9], > 30 µM; in assay [10], > 10 µM; in assay [11] it was > 30 µM; in [12] it was > 30 µM.

Consider `N[C@H](Cc1cc(I)c(Oc2cc(I)c(O)c(I)c2)c(I)c1)C(=O)O` [DEXTROTHYROXINE], for which the AC50 was > 30 µM in assay [1]; > 30 µM in assay [2]; > 10 µM in assay [3]; > 30 µM in assay [4]; > 10 µM in [5]; > 10 µM in assay [6]. Also, the AC50 in assay [7] was > 10 µM; in assay [8], > 30 µM; in assay [9], > 30 µM; in [10] it was > 10 µM; in [11], > 30 µM; in assay [12], > 30 µM.

As to `CC(=O)OCC(CCn1cnc2cnc(N)nc21)COC(C)=O` [FAMCICLOVIR], the AC50 in assay [1] was > 10 µM; in [2], > 30 µM; in assay [3], > 10 µM; in [4], > 30 µM; in [5], > 10 µM; in assay [6] it was > 10 µM. Also, the AC50 is > 10 µM in [7]; > 30 µM in [8]; > 30 µM in assay [9]; > 10 µM in assay [10]; > 30 µM in [11]; > 30 µM in assay [12].

Take `O=C(O)c1ccccc1Nc1cccc(C(F)(F)F)c1` [FLUFENAMIC ACID]: the AC50 in [1] is > 30 µM; in assay [2], 4.6 µM; in [3], > 10 µM; in assay [4] it was > 30 µM; in assay [5], > 10 µM; in [6] it was > 10 µM. The AC50 in assay [7] was > 10 µM; in assay [8] it was > 30 µM; in assay [9], > 30 µM; in assay [10], > 10 µM; in [11] it was > 30 µM; in [12], > 30 µM.

`COC1=C(OC)C(=O)C(CCCCCCCCCCO)=C(C)C1=O` [IDEBENONE]: the AC50 in assay [1], in [2], in assay [3], in [4], in assay [5] and in [6] was > 10 µM in each case. Further, the AC50 in assay [7] was > 10 µM; in assay [8], > 30 µM; in assay [9] it was > 10 µM; in [10], > 10 µM; in [11] it was > 30 µM; in assay [12], > 30 µM.

As to `CC(=O)Nc1c(I)c(C(=O)N[C@H]2C(O)O[C@H](CO)[C@@H](O)[C@@H]2O)c(I)c(N(C)C(C)=O)c1I` (some centres not stated) [METRIZAMIDE], the AC50 in assay [1] is > 10 µM; in assay [2], > 30 µM; in assay [3] it was > 10 µM; in assay [4], > 30 µM; in assay [5], > 10 µM; in [6], > 10 µM. The AC50 in [7] was > 10 µM; in assay [8], > 10 µM; in assay [9], > 30 µM; in [10], > 10 µM; in [11], > 30 µM; in assay [12], > 10 µM.

`O=C1Nc2ccc(Cl)cc2C(c2ccccc2)=NC1O` (configuration not stated) [OXAZEPAM]: the AC50 was > 10 µM in assay [1]; > 30 µM in assay [2]; 0.03 µM in assay [3]; > 10 µM in assay [4]; > 10 µM in assay [5]; > 10 µM in assay [6]. In addition, the AC50 is > 10 µM in [7]; > 30 µM in assay [8]; > 10 µM in assay [9]; > 10 µM in assay [10]; > 30 µM in assay [11]; > 30 µM in assay [12].

In the case of `NC(=O)CCC/N=C(\c1ccc(Cl)cc1)c1cc(F)ccc1O` [PROGABIDE], the AC50 in assay [1] was > 10 µM; in assay [2] it was > 30 µM; in assay [3] it was > 10 µM; in assay [4] it was > 30 µM; in assay [5], > 10 µM; in [6], > 10 µM. Also, the AC50 is > 10 µM in [7]; > 10 µM in [8]; > 30 µM in assay [9]; > 10 µM in [10]; > 30 µM in assay [11]; > 10 µM in assay [12].

As to `Cc1cccc(N(C)C(=S)Oc2ccc3ccccc3c2)c1` [TOLNAFTATE], the AC50 in assay [2] is > 30 µM; in assay [3] it was > 10 µM; in assay [4], > 30 µM; in [5] it was > 30 µM; in [6], > 10 µM; in [7], > 30 µM. Further, the AC50 is > 10 µM in assay [8]; > 30 µM in [9]; > 10 µM in assay [10]; > 30 µM in [11]; > 10 µM in assay [12].

Take `COc1ccc(C(CN(C)C)C2(O)CCCCC2)cc1` (configuration not stated) [VENLAFAXINE]: the AC50 is > 30 µM in assay [2]; > 10 µM in assay [3]; > 30 µM in assay [4]; > 30 µM in [5]; > 10 µM in assay [6]; > 10 µM in [7]. Besides, the half-maximal activity concentration (AC50) is > 30 µM in [8]; > 30 µM in assay [9]; 5.5 µM in [10]; > 30 µM in [11]; > 30 µM in [12].
